We go through twelve compounds from patent US9624213B2 (Plexxikon Inc., priority 2011, dated 2017).

By IC50 is commonly meant the concentration needed to halve the response being measured.

One experiment deals with COLO205. The experiment can be described thus: COLO205 cell growth inhibitory activity (ATPlite). Type of experiment: cell-based. The following applies: Homo sapiens, COLO 205, 72 h; COLO205 cells, growth inhibition, 3 days. How it is done: (§1) Compounds are assessed in a variety of cell based assays. For example human cell lines with B-Raf V600E mutation (A375 melanoma, SKMEL3 melanoma, and COLO205 colon adenocarcinoma), as well as tumorigenic cell lines with wild-type B-RAF (SW620 colon adenocarcinoma) or with Ras mutations (SKMEL2 melanoma and IPC298 melanoma). Similar assays may be used to assess additional tumorigenic cell lines with Ras mutations, including, but not limited to, M202, M207, M243, M244, M296, S117, HCT116, HCT15, DLD1, MiaPaCa, A549, NCI-H23, NCI-H460, HOP62, MDA-MB231, Hs-578T, HL60, MOLT-4, and CCRF-CEM.
(§2) On day 1, cells are counted, then centrifuged in a conical tube for 5 minutes at 1000 rpm. The supernatant is removed and cells are re-suspended as follows: • SW620 (ATCC catalog #CCL-27): resuspend in Leibovitz's L-15 medium, 2 mM L-glutamine, 10% fetal bovine serum to 6×10^4 cells/mL. • A375 (ATCC catalog #CRL-1619): resuspend in Dulbecco's modified Eagle's medium, 4 mM L-glutamine, 4.5 g/L D-glucose, 10% fetal bovine serum to 6×10^4 cells/mL. • COLO205 (ATCC catalog #CCL-222): resuspend in RPMI 1640, 2 mM L-glutamine, 1.5 g/L sodium bicarbonate, 4.5 g/L D-glucose, 10 mM HEPES, 1.0 mM sodium pyruvate, 10% fetal bovine serum to 6×10^4 cells/mL. • SKMEL2 (ATCC catalog #HTB-68): resuspend in Minimum Eagle essential medium, 2 mM L-glutamine, 1.5 g/L sodium bicarbonate, 0.1 mM non-essential amino acids, 1.0 mM sodium pyruvate, 10% fetal bovine serum to 6×10^4 cells/mL. • SKMEL3 (ATCC catalog #HTB-69): resuspend in McCoy's 5A medium, 1.5 mM L-glutamine, 15% fetal bovine serum to 6×10^4 cells/mL. • IPC298 (DSMZ catalog #ACC 251): resuspend in RPMI 1640, 2 mM L-glutamine, 10% fetal bovine serum to 6×10^4 cells/mL.
(§3) The cells are plated, 50 μL in each well of a 96-well dish (Corning 3610) and incubated at 37° C. in 5% CO2 overnight, cells plated to a final concentration of cells as follows: • SW620: 5,000 cells per well. • A375: 2,000 cells per well. • COLO205: 2,000 cells per well. • SKMEL2: 2,000 cells per well. • SKMEL3: 3,000 cells per well. • IPC298: 2,000 cells per well.
(§4) On day 2, compound at a maximum concentration of 5 mM is serially diluted 1:3 (e.g. 10 μL with 30 μL dimethyl sulfoxide) for a total of 8 point titration with DMSO as a control. A 1 μL aliquot of each dilution point and control is added to 249 μL growth media and 50 μL is added to a well containing cells, providing 10 μM compound at the maximum concentration point. The cells are incubated for 3 days at 37° C. in 5% CO2.
(§5) On day 5, ATPlite 1 step Luminescence Assay System (Perkin Elmer #6016739) is brought to room temperature along with the cell cultures. ATPlite is added 25 μL to each well, shake for 2 minutes, and the cells are incubated at room temperature for 10 minutes, then luminescence is read on Satire reader. The measured luminescence correlates directly with cell number, such that the reading as a function of compound concentration is used to determine the IC50 value.
A general note: In ATP-based viability assays light output follows the ATP content of the culture.

The subject of the next experiment is A375. The experiment is described as follows: A375_P-ERK / A375 cell activity. The conditions noted are these: Homo sapiens, A-375; A375 cells (A375_P-ERK). Format: cell-based. On the procedure:
as §1, §2, §3, §4, §5

Turning to `COc1ncc(-c2cnc3[nH]cc(C(=O)c4c(F)ccc(NS(=O)(=O)N5CCCC5)c4F)c3c2)s1` [Compound P-0270, N-[2,4-difluoro-3-[5-(2-methoxythiazol-5-yl)-1H-pyrrolo[2,3-b]pyridine-3-carbonyl]phenyl]pyrrolidine-1-sulfonamide], the IC50 with COLO205 and in the experiment on A375 was less than 1 µM each time.
Take `O=C(c1c(F)ccc(NS(=O)(=O)N2CCCC2)c1F)c1c[nH]c2ncc(-c3ccc(Cl)cc3)cc12` [Compound P-0021]: the IC50 with COLO205 and in the experiment on A375 was less than 1 µM in each case.
As to `CN(C)S(=O)(=O)Nc1cccc(C(=O)c2c[nH]c3ncc(-c4ccccc4)cc23)c1F` [Compound P-0037, 3-[3-(dimethylsulfamoylamino)-2-fluoro-benzoyl]-5-phenyl-1H-pyrrolo[2,3-b]pyridine], the IC50 in the experiment with COLO205 is more than 1 µM; in the experiment on A375 it was less than 1 µM.
As to `CN(C)c1ccc(-c2cnc3[nH]cc(C(=O)c4cccc(NS(=O)(=O)N(C)C)c4F)c3c2)cn1` [Compound P-0030], the IC50 in the experiment on COLO205 and in the experiment on A375 was less than 1 µM in each case.
As for `O=C(c1c(F)ccc(NS(=O)(=O)N2CCCC2)c1F)c1c[nH]c2ncc(-c3cc(C(F)(F)F)ncn3)cc12` [Compound P-0294, N-[2,4-difluoro-3-[5-[6-(trifluoromethyl)pyrimidin-4-yl]-1H-pyrrolo[2,3-b]pyridine-3-carbonyl]phenyl]pyrrolidine-1-sulfonamide], the IC50 with COLO205 and in the experiment with A375 was more than 1 µM throughout.
Turning to `O=C(c1c(F)ccc(NS(=O)(=O)N2CCCC2)c1F)c1c[nH]c2ncc(-c3ccnc(OC4CCC4)c3)cc12` [Compound P-0286, N-[3-[5-[2-(cyclobutoxy)-4-pyridyl]-1H-pyrrolo[2,3-b]pyridine-3-carbonyl]-2,4-difluoro-phenyl]pyrrolidine-1-sulfonamide], the IC50 in the experiment with COLO205 was less than 1 µM; with A375 it was more than 1 µM.
Take `COc1ncc(-c2cnc3[nH]cc(C(=O)c4cccc(NS(=O)(=O)N(C)CC5CC5)c4F)c3c2)cn1` [Compound P-0083, 3-[3-[[cyclopropylmethyl(methyl)sulfamoyl]amino]-2-fluoro-benzoyl]-5-(2-methoxypyrimidin-5-yl)-1H-pyrrolo[2,3-b]pyridine]: the IC50 with COLO205 and in the experiment on A375 was less than 1 µM each time.
On to `CCN(C)S(=O)(=O)Nc1cccc(C(=O)c2c[nH]c3ncc(-c4ccc(C#N)cc4)cc23)c1F` [Compound P-0031], for which the IC50 in the experiment with COLO205 and in the experiment on A375 was less than 1 µM in each case.
Take `CN(C)c1ncc(-c2cnc3[nH]cc(C(=O)c4c(F)ccc(NS(=O)(=O)N5CCCC5)c4F)c3c2)cn1` [Compound P-0022]: the IC50 in the experiment with COLO205 and in the experiment with A375 was less than 1 µM in each case.
Consider `CCCN(C)S(=O)(=O)Nc1cccc(C(=O)c2c[nH]c3ncc(-c4cnc(NC5CC5)nc4)cc23)c1F` [Compound P-0082, 5-[2-(cyclopropylamino)pyrimidin-5-yl]-3-[2-fluoro-3-[[methyl(propyl)sulfamoyl]amino]benzoyl]-1H-pyrrolo[2,3-b]pyridine], for which the IC50 in the experiment on COLO205 and with A375 was less than 1 µM each time.
On to `COC(=O)CCS(=O)(=O)Nc1cccc(C(=O)c2c[nH]c3ncc(-c4cnc(OC)nc4)cc23)c1F` [Compound P-0066, methyl 3-[[2-fluoro-3-[5-(2-methoxypyrimidin-5-yl)-1H-pyrrolo[2,3-b]pyridine-3-carbonyl]phenyl]sulfamoyl]propanoate], for which the IC50 in the experiment with COLO205 and in the experiment with A375 was less than 1 µM throughout.
Take `CCCN(C)S(=O)(=O)Nc1ccc(F)c(C(=O)c2c[nH]c3ncc(-c4ccc(C5(C#N)CC5)cc4)cc23)c1F` [Compound P-0079, 5-[4-(1-cyanocyclopropyl)phenyl]-3-[2,6-difluoro-3-[[methyl(propyl)sulfamoyl]amino]benzoyl]-1H-pyrrolo[2,3-b]pyridine]: the concentration for half-maximal inhibition (IC50) in the experiment on COLO205 and with A375 was less than 1 µM each time.
